# Laboratory results reported in ChEMBL document CHEMBL3351611, “Diversity-oriented synthesis-facilitated medicinal chemistry: toward the development of novel antimalarial agents” (J Med Chem, 2014).
# Legend:
# Plasmodium falciparum = test: Antimalarial activity against Plasmodium falciparum Dd2 assessed as inhibition of parasite proliferation; type: functional
# [1] = Solubility in PBS buffet at pH 7.4 at 100 uM incubated for 18 hrs by UPLC-MS method; type: physicochemical; conditions: for solubility: buffer, pH 7.4, 18 h, 100 µM
# Plasmodium berghei [2] = test: Antimalarial activity against Plasmodium berghei ANKA infected in CD1 Swiss albino mouse assessed as reduction in parasitemia; type: functional
# hERG (KCNH2) = hERG (KCNH2) (Homo sapiens, UniProt Q12809); test: Displacement of [3H]astemizole from human ERG expressed in HEK293 cell membranes at 10 uM incubated for 75 mins by scintillation counting method; conditions: HEK293 cell membranes that express hERG, probe [3H]astemizole
# [3] = Lipophilicity, log D of the compound by HPLC method; type: physicochemical
# [4] = Stability in mouse microsomes assessed as compound remaining at 1 uM after 1 hr at 37 degC by UPLC-MS method; type: ADME, Microsome; conditions: read-out: Stability
# Plasmodium berghei [5] = test: Antimalarial activity against Plasmodium berghei ANKA infected in CD1 Swiss albino mouse assessed as reduction in parasitemia level at 100 mg/kg, ip dosed seven times every 12 hrs over 3 days relative to control; type: functional; conditions: route intraperitoneal
# [6] = Plasma concentration in Plasmodium berghei ANKA infected CD1 Swiss albino mouse at 100 mg/kg, ip dosed seven times every 12 hrs over 3 days measured 30 mins after final dose on day 3; type: ADME, organism-based; parameters: dose 100 mg/kg, route intraperitoneal
# [7] = Plasma concentration CD1 mouse at 20 mg/kg, ip dosed through cassette administration measured after 2 hrs by LC-MS/MS method; type: ADME, organism-based; parameters: dose 20 mg/kg, route intraperitoneal
# hERG (KCNH2), sequence (Q12809 whole entry): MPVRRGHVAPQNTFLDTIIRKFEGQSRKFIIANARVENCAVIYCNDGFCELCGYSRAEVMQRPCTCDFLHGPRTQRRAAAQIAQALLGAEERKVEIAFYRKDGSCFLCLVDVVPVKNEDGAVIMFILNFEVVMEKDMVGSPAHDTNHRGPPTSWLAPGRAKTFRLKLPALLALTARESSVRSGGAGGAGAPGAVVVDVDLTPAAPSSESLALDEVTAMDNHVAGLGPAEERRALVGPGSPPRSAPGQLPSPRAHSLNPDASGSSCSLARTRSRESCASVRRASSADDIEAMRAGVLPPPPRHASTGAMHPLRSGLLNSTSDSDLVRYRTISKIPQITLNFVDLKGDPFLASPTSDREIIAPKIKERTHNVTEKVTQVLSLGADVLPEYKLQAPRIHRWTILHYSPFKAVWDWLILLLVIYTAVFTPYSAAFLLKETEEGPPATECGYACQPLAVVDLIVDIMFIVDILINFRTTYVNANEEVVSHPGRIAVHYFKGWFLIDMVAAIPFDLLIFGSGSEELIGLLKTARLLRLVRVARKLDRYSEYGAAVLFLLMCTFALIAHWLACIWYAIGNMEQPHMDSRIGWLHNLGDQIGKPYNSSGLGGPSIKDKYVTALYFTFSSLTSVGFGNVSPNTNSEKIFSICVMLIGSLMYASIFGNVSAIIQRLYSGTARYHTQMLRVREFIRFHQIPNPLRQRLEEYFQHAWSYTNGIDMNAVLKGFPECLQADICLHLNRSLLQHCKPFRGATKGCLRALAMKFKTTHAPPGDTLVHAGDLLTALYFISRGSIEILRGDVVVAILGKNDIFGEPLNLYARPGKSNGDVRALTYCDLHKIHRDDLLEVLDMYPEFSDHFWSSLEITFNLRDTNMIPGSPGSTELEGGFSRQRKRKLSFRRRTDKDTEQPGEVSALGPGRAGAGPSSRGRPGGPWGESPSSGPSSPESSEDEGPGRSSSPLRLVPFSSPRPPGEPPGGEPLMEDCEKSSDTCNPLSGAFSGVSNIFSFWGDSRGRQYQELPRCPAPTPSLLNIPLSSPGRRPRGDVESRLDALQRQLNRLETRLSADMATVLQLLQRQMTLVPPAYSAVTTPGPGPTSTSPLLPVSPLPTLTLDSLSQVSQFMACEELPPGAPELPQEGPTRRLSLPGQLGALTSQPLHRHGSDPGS
Compound,GI50 (Plasmodium falciparum) [nM],solubility [1] [µM],logD [3],"remaining at 1 h, 1 µM [4] [%]",further results
Cc1noc(C)c1NC(=O)Nc1ccc2c(c1)C(=O)N([C@@H](C)CN(C)C)C[C@@H](C)[C@H](CN(C)S(=O)(=O)c1ccc(F)cc1)OCCCCCO2,111,> 100,,,
C[C@H]1[C@H](OC(=O)CCC(=O)O)O[C@@H]2O[C@@]3(C)CC[C@H]4[C@H](C)CC[C@@H]1[C@@]24OO3 [ARTESUNATE],,,,,inhibition (INH) (Plasmodium berghei [2]): 97%
Cc1noc(C)c1NC(=O)Nc1ccc2c(c1)C(=O)N([C@@H](C)CN(C)C)C[C@@H](C)[C@H](CN(C)S(=O)(=O)c1ccc(F)cc1)OCCCC[C@H](C)O2,4.2,> 100,2.9,8,"inhibition at 1.25 h, 10 µM (hERG (KCNH2)): 13%; fold change (FC) (Plasmodium berghei [5]): 2; concentration at 0.5 h [6]: 300 ng/mL; concentration at 2 h [7]: 768 ng/mL"
COc1ccc(COC[C@H](C)N2C[C@@H](C)[C@H](CN(C)S(=O)(=O)c3ccc(F)cc3)OCCCC[C@H](C)Oc3ncc(F)cc3C2=O)cc1,162,< 5,,,
C[C@@H]1CN([C@@H](C)CN(C)C)C(=O)c2cccnc2O[C@@H](C)CCCCO[C@H]1CN(C)S(=O)(=O)c1ccc(F)cc1,231,> 100,,< 5,
CCN(CC)C[C@H](C)N1C[C@@H](C)[C@H](CN(C)S(=O)(=O)c2ccc(F)cc2)OCCCC[C@H](C)Oc2ccc(NC(=O)Nc3c(C)noc3C)cc2C1=O,5,8,3.1,5,
C[C@@H]1CN([C@@H](C)CN(C)C)C(=O)c2cc(NC(=O)Nc3ccc(F)cc3)ccc2O[C@@H](C)CCCCO[C@H]1CN(C)S(=O)(=O)c1ccc(F)cc1,1.4,< 5,3.5,< 5,
C[C@@H]1CN([C@@H](C)CN(C)Cc2cc(F)ccc2F)C(=O)c2cccnc2O[C@@H](C)CCCCO[C@H]1CN(C)S(=O)(=O)c1ccc(F)cc1,10,< 5,,,
Cc1noc(C)c1NC(=O)Nc1ccc2c(c1)C(=O)N([C@@H](C)C[N+](C)(C)[O-])C[C@@H](C)[C@H](CN(C)S(=O)(=O)c1ccc(F)cc1)OCCCC[C@H](C)O2,160,> 100,1.5,35,
COc1ccc(COC[C@H](C)N2C[C@@H](C)[C@H](CN(C)S(=O)(=O)c3ccc(F)cc3)OCCCC[C@H](C)Oc3nccnc3C2=O)cc1,214,< 5,,,
COc1ccc(COC[C@H](C)N2C[C@@H](C)[C@H](CN(C)S(=O)(=O)c3ccc(F)cc3)OCCCC[C@H](C)Oc3c(cnn3C)C2=O)cc1,375,15,,,
C[C@@H]1CN([C@@H](C)CN(C)C)C(=O)c2cc(NC(=O)Nc3ccccc3)ccc2O[C@@H](C)CCCCO[C@H]1CN(C)S(=O)(=O)c1ccc(F)cc1,,,4.1,,"inhibition at 1.25 h, 10 µM (hERG (KCNH2)): 95%"
Cc1noc(C)c1NC(=O)Nc1ccc2c(c1)C(=O)N([C@@H](C)CO)C[C@@H](C)[C@H](CN(C)S(=O)(=O)c1ccc(F)cc1)OCCCC[C@H](C)O2,240,,2.9,< 5,"inhibition at 1.25 h, 10 µM (hERG (KCNH2)): 11%"
COc1ccc(COC[C@H](C)N2C[C@@H](C)[C@H](CN(C)S(=O)(=O)c3ccc(F)cc3)Oc3ccc(NC(=O)Nc4c(C)noc4C)cc3C2=O)cc1,> 5000,,,,
COc1ccc(COC[C@H](C)N2C[C@@H](C)[C@H](CN(C)S(=O)(=O)c3ccc(F)cc3)OCCCC[C@H](C)Oc3cc(F)ccc3C2=O)cc1,38,< 5,,,
Cc1noc(C)c1NC(=O)Nc1ccc2c(c1)C(=O)N([C@@H](C)CN(C)C)C[C@@H](C)[C@H](CN(C)S(=O)(=O)c1ccc(F)cc1)OCCCCO2,91,> 100,,15,
CNC[C@H](C)N1C[C@@H](C)[C@H](CN(C)S(=O)(=O)c2ccc(F)cc2)OCCCCOc2ccc(NC(=O)Nc3c(C)noc3C)cc2C1=O,624,> 100,,65,
Cc1noc(C)c1NC(=O)Nc1ccc2c(c1)C(=O)N([C@@H](C)CNCC(C)(C)C)C[C@@H](C)[C@H](CN(C)S(=O)(=O)c1ccc(F)cc1)OCCCC[C@H](C)O2,14,7,3.8,5,
COc1ccc(COC[C@H](C)N2C[C@@H](C)[C@H](CN(C)S(=O)(=O)c3ccc(F)cc3)OCCCC[C@H](C)Oc3cccnc3C2=O)cc1,403,< 5,,,

Compound,GI50 (Plasmodium falciparum) [nM],solubility [1] [µM],logD [3],"remaining at 1 h, 1 µM [4] [%]",further results
COc1ccc(COC[C@H](C)N2C[C@@H](C)[C@H](CN(C)S(=O)(=O)c3ccc(F)cc3)OCCCC[C@H](C)Oc3ccc(F)cc3C2=O)cc1,162,< 5,,,
COc1ccc(COC[C@H](C)N2C[C@@H](C)[C@H](CN(C)S(=O)(=O)c3ccc(F)cc3)OCCCC[C@H](C)Oc3ccc(NC(=O)Nc4c(C)noc4C)cc3C2=O)cc1,0.88,< 5,,,
Cc1noc(C)c1NC(=O)Nc1ccc2c(c1)C(=O)N([C@@H](C)CN(C)C)CC[C@H](CN(C)S(=O)(=O)c1ccc(F)cc1)OCCCC[C@H](C)O2,71,99,,2,
COc1ccc(COC[C@H](C)N2C[C@@H](C)[C@H](CN(C)S(=O)(=O)c3ccc(F)cc3)OCCCC[C@H](C)OCCC2=O)cc1,3410,< 5,,,
Cc1noc(C)c1NC(=O)Nc1ccc2c(c1)C(=O)N([C@@H](C)CNCC(F)(F)F)C[C@@H](C)[C@H](CN(C)S(=O)(=O)c1ccc(F)cc1)OCCCC[C@H](C)O2,9,,3.9,< 5,"inhibition at 1.25 h, 10 µM (hERG (KCNH2)): 15%"
COc1ccc(COC[C@H](C)N2C[C@@H](C)[C@H](CN(C)S(=O)(=O)c3ccc(F)cc3)OCCCOc3ccc(NC(=O)Nc4c(C)noc4C)cc3C2=O)cc1,767,< 5,,,
CCN(CC)C[C@H](C)N1C[C@@H](C)[C@H](CN(C)S(=O)(=O)c2ccc(F)cc2)OCCCC[C@H](C)Oc2ncccc2C1=O,79,> 100,,< 5,
CNC[C@H](C)N1C[C@@H](C)[C@H](CN(C)S(=O)(=O)c2ccc(F)cc2)OCCCC[C@H](C)Oc2ccc(NC(=O)Nc3c(C)noc3C)cc2C1=O,320,> 100,1.7,51,
COc1ccc(COC[C@H](C)N2C[C@@H](C)[C@H](CN(C)S(=O)(=O)c3ccc(F)cc3)OCCCC[C@H](C)Oc3ccsc3C2=O)cc1,481,< 5,,,
COc1ccc(COC[C@H](C)N2CC[C@H](CN(C)S(=O)(=O)c3ccc(F)cc3)OCCCC[C@H](C)Oc3ccc(NC(=O)Nc4c(C)noc4C)cc3C2=O)cc1,20,< 5,,,
COc1ccc(COC[C@H](C)N2C[C@@H](C)[C@H](CN(C)S(=O)(=O)c3ccc(F)cc3)OCCCCOc3ccc(NC(=O)Nc4c(C)noc4C)cc3C2=O)cc1,17,< 5,,17,
COc1ccc(COC[C@H](C)N2C[C@@H](C)[C@H](CN(C)S(=O)(=O)c3ccc(F)cc3)OCCCC[C@H](C)Oc3ncccc3C2=O)cc1,59,< 5,,,
COc1ccc(COC[C@H](C)N2C[C@@H](C)[C@H](CN(C)S(=O)(=O)c3ccc(F)cc3)OCCCC[C@H](C)Oc3cc(C(F)(F)F)ccc3C2=O)cc1,48,< 5,,,
COc1ccc(COC[C@H](C)N2C[C@@H](C)[C@H](CN(C)S(=O)(=O)c3ccc(F)cc3)OCCCCCOc3ccc(NC(=O)Nc4c(C)noc4C)cc3C2=O)cc1,6,,,,
Cc1noc(C)c1NC(=O)Nc1ccc2c(c1)C(=O)N(C(C)C)C[C@@H](C)[C@H](CN(C)S(=O)(=O)c1ccc(F)cc1)OCCCC[C@H](C)O2,22,,4,< 5,"solubility at 18 h, 100 µM ([1]; PBS buffer, pH 7.4): < 5 µM; inhibition at 1.25 h, 10 µM (hERG (KCNH2)): 0%"
C[C@@H]1CN([C@@H](C)CN(C)C)C(=O)c2cc(NC(=O)NC3COC3)ccc2O[C@@H](C)CCCCO[C@H]1CN(C)S(=O)(=O)c1ccc(F)cc1,32,> 100,1.1,8,
COc1ccc(COC[C@H](C)N2C[C@@H](C)[C@H](CN(C)S(=O)(=O)c3ccc(F)cc3)OCCCCCNc3ccc(NC(=O)Nc4c(C)noc4C)cc3C2=O)cc1,76,< 5,,,
COc1ccc(COC[C@H](C)N2C[C@@H](C)[C@H](CN(C)S(=O)(=O)c3ccc(F)cc3)OCCOc3ccc(NC(=O)Nc4c(C)noc4C)cc3C2=O)cc1,2970,6,,,
Cc1noc(C)c1NC(=O)Nc1ccc2c(c1)C(=O)N([C@@H](C)CN1CCOCC1)C[C@@H](C)[C@H](CN(C)S(=O)(=O)c1ccc(F)cc1)OCCCC[C@H](C)O2,105,29,3.5,< 5,"inhibition at 1.25 h, 10 µM (hERG (KCNH2)): 1%"
